{
  "source": "paper PMC5065237",
  "about": "“Investigation into the Mode of Phosphate Activation in the 4-Hydroxy-4-Methyl-2-Oxoglutarate/4-Carboxy-4-Hydroxy-2-Oxoadipate Aldolase from Pseudomonas putida F1” (PLoS ONE, 2016)",
  "key": {"[1]": {"target": "T1, HMG/CHA aldolase (Pseudomonas putida, UniProt A5W059)", "T1 construct": "gene Pput_1361; recombinant from pT7-7, expressed in E. coli; chelex-treated apo-enzyme reconstituted with MgCl2", "T1 sequence (A5W059 whole entry)": "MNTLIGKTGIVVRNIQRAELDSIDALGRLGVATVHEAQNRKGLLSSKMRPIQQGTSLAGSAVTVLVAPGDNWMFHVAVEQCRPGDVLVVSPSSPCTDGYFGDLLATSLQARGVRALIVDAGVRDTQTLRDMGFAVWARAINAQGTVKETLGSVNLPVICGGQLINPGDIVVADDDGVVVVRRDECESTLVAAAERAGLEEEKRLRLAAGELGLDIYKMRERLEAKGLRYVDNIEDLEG", "test": "aldol cleavage, LDH-coupled NADH oxidation at […] nm", "type": "biochemical", "conditions": "substrate inhibition constant, 1 mM MgCl2, 0.1 M HEPES pH 8.0, 25 °C, racemic substrate"}, "[2]": {"target": "T1, HMG/CHA aldolase", "test": "decarboxylation, LDH-coupled NADH oxidation at […] nm", "type": "biochemical", "conditions": "substrate inhibition constant, 1 mM MgCl2, 0.1 M HEPES pH 8.0, 25 °C"}},
  "data": [
    {"molecule": "CC(O)(CC(=O)C(=O)O)C(=O)O", "note": "(racemic) [HMG]", "values": [
      {"measurement": "Without Pi / Ksi", "setting": "[1]", "result": "1.80 ± 0.091", "unit": "mM"}
    ]},
    {"molecule": "O=C(O)CC(=O)C(=O)O", "note": "[OAA]", "values": [
      {"measurement": "Without Pi / Ksi", "setting": "[2]", "result": "0.360 ± 0.049", "unit": "mM"}
    ]}
  ]
}
